Here are results for nine compounds from patent publication US4119730A, “Treating muscle spasms” (Chimicasa GmbH, priority 1976, dated 1978).

In brackets after ≈: the same amount, converted by molar mass. Like-named read-outs stand apart in the source and are kept apart here.

Series [1] relates to isolated guinea pig intestine. Kind of series: inhibition of histamine-induced contraction of isolated guinea pig intestine. Conditions: Cavia porcellus, 2 min, read-out: ED50 (concentration of agent per liter of bath liquid which inhibits the contraction of the intestine by 50%). As for the experimental part: The antispasmodic effect of the compounds (I) could not be expected from a study of their structure alone. Their effectiveness has been measured in a pharmacological standard test as follows:
Several 3 cm-long pieces of an isolated guinea pig intestine were stretched under a load of 0.5 g in separate baths. In all baths, the bath liquid was Tyrode's solution, warmed to 32° C. A first contraction of the pieces of intestine was produced in each case by adding 0.5 mg (milligram) of histamine chloride per liter of bath liquid. he reduction in length caused by the first contraction was measured 2 min (minutes) after adding the histamine chloride.
The bath liquids were then renewed and, after relaxation of the first contraction, the agent under test, dissolved in propylene glycol, was added to the bath liquids and 2 min later 0.5 mg. of histamine chloride per liter of bath liquid was again added. A second contraction was thereby produced and the reduction in length caused by this was measured 2 min after the addition of the histamine chloride. […] The concentrations (ED50) of agent per liter of bath liquid, which inhibit the contraction of the intestine by 50% were determined (ED50 = effective dose to inhibit for 50%).

Series [2] concerns bladder. Kind of series: cystometric measuring of the damping of the increase of the bladder tonus caused by a spasmogenic agent (carbachol). The class given is in vivo, human. As to the method:
The effectiveness test is performed by cystometric measuring of the damping of the increase of the bladder tonus caused by the antispasmodic agent after intravesical administration of a spasmogenic agent as follows:
The bladder capacity (BC) of several human subjects with indwelling permanent catheters is measured by filling the bladders with water warmed to 37° C. The maximum micturition pressure (MM) in the case of the filled bladder is measured. The bladder is then emptied and filled again with warm, clean water to half the capacity measured previously (1/2 BC) and the pressure P1 in the case of the half-filled bladder is measured. The bladder is again emptied and filled again to half its capacity with a solution 1. […] The pressure P2 for half its capacity is measured. […] 30 minutes thereafter the emptied bladder is filled with water, warmed to 37° C. to half its capacity and the pressure P3 is measured. The bladder is subsequently emptied and filled to half its capacity with the solution 1 and the pressure P4 is measured. Fifteen minutes later, the bladder is emptied again and filled to half its capacity with water, warmed to 37° C. and the pressure P5 is measured. Directly thereafter, the bladder is emptied and filled to half its capacity with solution 1 and the pressure P6 is measured. […]

The conditions of series [3]: cited from earlier work.
The mark [4] stands for this setting: 0.5 mg histamine chloride per liter, Tyrode's solution, 32° C.

`C=CCc1ccc(OC(=O)CCCC)c(OC)c1` [4-Allyl-2-methoxyphenyl valerate]: the IC50 in series [1] (setting [4]) amounted to 44.6 µg/mL (≈ 180 µM). For `C=CCc1ccc(OC)c(OC)c1` [1-Allyl-3,4-dimethoxybenzene], the IC50 in series [1] came to 11.8 µg/mL (≈ 66.2 µM). Further, the effectiveness on humans entry in series [2] (rectal) is listed as “effectiveness”. Turning to `C=CCc1ccc(OC(=O)c2ccccc2)c(OC)c1` [4-Allyl-2-methoxyphenyl benzoate], the IC50 in series [1] (setting [4]) was 160 µg/mL (≈ 596 µM).

`CC=Cc1ccc(OC)c(OC)c1` [3,4-Dimethoxy-propenylbenzol]: the IC50 in series [1] (setting [4]) came out at 27 µg/mL (≈ 151 µM).

For `CC=Cc1ccc(OC(C)=O)c(OC)c1` [2-Methoxy-4-propenylphenyl acetate], the IC50 in series [1] was found to be 52 µg/mL. Turning to `C=CCc1ccc(OC(C)=O)c(OC)c1` [4-Allyl-2-methoxyphenyl acetate], the IC50 in series [1] (setting [4]) is 25 µg/mL. Besides, the effectiveness on humans result in series [2] (rectal or oral) is recorded as “effectiveness”.

Consider `C=CCc1ccc(OC(=O)CCC)c(OC)c1` [4-Allyl-2-methoxyphenyl butanoate], for which, in series [1] (setting [4]), the IC50 is 14.5 µg/mL (≈ 61.9 µM).

On to `COc1ccc(Cc2nccc3cc(OC)c(OC)cc23)cc1OC` [Papaverine], for which the non-specific actions entry in series [3] (in vivo) was “observed”. Besides, in series [3] (prior art), the “activity in animal experiments” value is recorded as “very active in animal experiments” and the “activity when used on humans” value is reported as “its activity is insufficient”. The “dosage required in severe spasms relative to lethal dose” value in series [3] (prior art, lethal dose from animal experiments) is “very high dosages, near the lethal dose”. As to `CN1[C@@H]2CC[C@H]1C[C@@H](OC(=O)C(CO)c1ccccc1)C2` (stereo partly drawn) [atropine], the drug dependence entry in series [3] (especially with long term treatment, prior art) is listed as “drug dependence can occur”. The “side effects associated with use” value in series [3] (known antispasmodic, prior art) was “inducement of sleepiness, mental confusion and a state of inattentiveness”.
